The assay concerns the target Melanocortin receptor 4 (Mus musculus, UniProt P56450). Description: Antagonist activity against mouse melanocortin-4 receptor (MC4R) using Schild analysis. Type of assay: functional. The conditions noted are these: for Kb: read-out: pA2 (converted).

Positions of bridges follow the written chain, without caps; N, C: chain ends. Residues, ends and D or L forms follow the SMILES beside them.

Sequence of Melanocortin receptor 4 (P56450 whole entry): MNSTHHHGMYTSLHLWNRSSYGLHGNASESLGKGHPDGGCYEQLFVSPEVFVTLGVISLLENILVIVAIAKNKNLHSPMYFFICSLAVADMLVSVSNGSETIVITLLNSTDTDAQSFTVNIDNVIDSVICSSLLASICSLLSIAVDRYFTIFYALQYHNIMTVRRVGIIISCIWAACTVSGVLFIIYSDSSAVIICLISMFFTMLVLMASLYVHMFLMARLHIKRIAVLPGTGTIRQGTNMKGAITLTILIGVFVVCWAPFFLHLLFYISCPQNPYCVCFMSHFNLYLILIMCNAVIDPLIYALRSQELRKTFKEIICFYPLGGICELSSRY

For `C[C@@H]1NC(=O)[C@H](CC(N)=O)NC(=O)[C@H](Cc2ccccc2)NC(=O)[C@H](Cc2ccccc2)NC(=O)[C@H](CCCN=C(N)N)NC(=O)CC[C@H](NC(=O)[C@@H](N)Cc2ccc(O)cc2)C(=O)NC[C@@H](C(=O)N[C@@H](Cc2ccc(O)cc2)C(N)=O)NC(=O)[C@H](Cc2ccccc2)NC1=O`, the pA2 – broadly, a measure of antagonist potency on a negative log scale – is recorded as 6.98. For `C[C@@H]1NC(=O)[C@H](CC(N)=O)NC(=O)[C@H](Cc2ccccc2)NC(=O)[C@H](Cc2ccccc2)NC(=O)[C@H](CCCNC(=N)N)NC(=O)[C@@H](NC(=O)[C@@H](N)Cc2ccc(O)cc2)CC(=O)NC[C@@H](C(=O)N[C@@H](Cc2ccc(O)cc2)C(N)=O)NC(=O)[C@H](Cc2ccccc2)NC1=O`, the Kb is 479 nM. For the molecule `C[C@@H]1NC(=O)[C@H](CC(N)=O)NC(=O)[C@H](Cc2ccccc2)NC(=O)[C@H](Cc2ccccc2)NC(=O)[C@H](CCCNC(=N)N)NC(=O)[C@@H](NC(=O)[C@@H](N)Cc2ccc(O)cc2)CSSC[C@@H](C(=O)N[C@@H](Cc2ccc(O)cc2)C(N)=O)NC(=O)[C@H](Cc2ccccc2)NC1=O` (H-YCRFFNAFCY-NH2; disulfide 2-9), the Kb is 155 nM.

The values are drawn from ChEMBL document CHEMBL1134285, “Novel agouti-related-protein-based melanocortin-1 receptor antagonist” (J Med Chem, 2001).
